Measurements published in ChEMBL document CHEMBL1146372, “Total synthesis of (R,R,R)- and (S,S,S)-schweinfurthin F: differences of bioactivity in the enantiomeric series” (Bioorg Med Chem Lett, 2007).

How the values were obtained:
[1] = Growth inhibition of NCI60 cells after 48 hrs; assay type: functional; conditions: Homo sapiens, NCI60, 48 h
[2] = test system: SNB-75; experiment: Growth inhibition of SNB75 cells; assay type: functional; conditions: Homo sapiens
[3] = test system: U-251; experiment: Growth inhibition of U251 cells; assay type: functional; conditions: Homo sapiens
[4] = test system: Hs-578T; experiment: Growth inhibition of HS578T cells; assay type: functional; conditions: Homo sapiens
[5] = test system: RPMI; experiment: Inhibition of DNA synthesis in human RPMI cells by [3H]-thymidine incorporation assay; assay type: functional, cell-based

| Structure (SMILES) | GI50 [1] | GI50 [2] | GI50 [3] | GI50 [4] | IC50 [5] |
| --- | --- | --- | --- | --- | --- |
| COc1cc(/C=C/c2cc3c(c(OC)c2)O[C@]2(C)CC[C@@H](O)C(C)(C)[C@H]2C3)cc(O)c1CC=C(C)C | 870 nM |  |  |  |  |
| COc1cc(/C=C/c2cc3c(c(OC)c2)O[C@@]2(C)CC[C@H](O)C(C)(C)[C@@H]2C3)cc(O)c1CC=C(C)C | 4600 nM |  |  |  |  |
| COc1cc(/C=C/c2cc(O)c(CC=C(C)C)c(O)c2)cc2c1O[C@@]1(C)CC[C@H](O)C(C)(C)[C@@H]1C2 (single isomer, unassigned) | 130 nM | 1700 nM | < 10 nM | < 10 nM | 3400 nM |
| COc1cc(/C=C/c2cc(O)c(C/C=C(\C)CCC=C(C)C)c(O)c2)cc2c1O[C@@]1(C)CC[C@H](O)C(C)(C)[C@@H]1C2 (single isomer, unassigned) | 2200 nM |  |  |  | 4500 nM |
| COc1cc(/C=C/c2cc(O)c(C/C=C(\C)CCC=C(C)C)c(O)c2)cc2c1O[C@]1(C)CC[C@@H](O)C(C)(C)[C@H]1C2 (single isomer, unassigned) [3-DEOXYSCHWEINFURTHIN B] | 870 nM |  |  |  | 210 nM |
| COc1cc(/C=C/c2cc(O)c(CC=C(C)C)c(O)c2)cc2c1O[C@]1(C)CC[C@@H](O)C(C)(C)[C@H]1C2 (single isomer, unassigned) [SCHWEINFURTHIN F] | 410 nM | 10 nM | 13000 nM | < 10 nM | 580 nM |
| CC(C)=CCC/C(C)=C/Cc1c(O)cc(/C=C/c2cc(O)c3c(c2)C[C@@H]2C(C)(C)[C@H](O)[C@H](O)C[C@@]2(C)O3)cc1O [SCHWEINFURTHIN A] | 360 nM |  |  |  |  |
| COc1cc(/C=C/c2cc(O)c(C/C=C(\C)CCC=C(C)C)c(O)c2)cc2c1O[C@]1(C)C[C@@H](O)[C@@H](O)C(C)(C)[C@H]1C2 [SCHWEINFURTHIN B] | 810 nM |  |  |  |  |
| CC(C)=CCc1c(O)cc(/C=C/c2cc(O)c3c(c2)C[C@@H]2C(C)(C)[C@H](O)[C@H](O)C[C@@]2(C)O3)cc1O [VEDELIANIN] | 80 nM |  |  |  |  |
